Measurements taken from paper PMC4746303, “Inactivation of Anopheles gambiae Glutathione Transferase ε2 by Epiphyllocoumarin” (Biochemistry Research International, 2016).

How the values were obtained:
[1] = biological target: T1, Glutathione transferase epsilon 2 (AgGSTε2) (Anopheles gambiae, UniProt Q9GPL8); test: time-dependent inactivation of purified enzyme at […] (positive control), half-life […] min; assay type: biochemical
T1 construct: recombinant AgGSTε2 expressed from pET3a in E. coli BL21 (DE3) pLysS
T1 sequence (Q9GPL8 1-221): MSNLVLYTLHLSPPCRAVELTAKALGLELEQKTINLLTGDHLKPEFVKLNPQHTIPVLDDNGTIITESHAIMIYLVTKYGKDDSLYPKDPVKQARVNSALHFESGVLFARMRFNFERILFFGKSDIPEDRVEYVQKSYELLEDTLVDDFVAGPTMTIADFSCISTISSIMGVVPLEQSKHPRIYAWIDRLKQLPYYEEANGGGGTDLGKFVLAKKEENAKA

[2] = biological target: T1, Glutathione transferase epsilon 2 (AgGSTε2); test: time- and concentration-dependent inactivation of purified enzyme, GST activity (CDNB/GSH) assay; KI […], kinact […] min^-1; assay type: biochemical

| KI (inactivation) [2] [µM] | Compound | time-dependent inactivation of purified enzyme at 25 μM (positive control), half [1] [min] |
| --- | --- | --- |
| – | C=C(CC)C(=O)c1ccc(OCC(=O)O)c(Cl)c1Cl [ETA, ethacrynic acid] | 22 |
| 7.5 ± 2.1 | O=c1ccc2c3c(c(O)cc2o1)C[C@@H](O)[C@@H](c1ccc(O)c(O)c1)O3 [Tral 1, epiphyllocoumarin] | – |
